{
  "source": "patent US20150045433A1",
  "about": "“METHODS AND COMPOSITIONS FOR INDUCING PHYSIOLOGICAL HYPERTROPHY” (THE REGENTS OF THE UNIVERSITY OF COLORADO, A BODY CORPORATE, priority 2009, published 2015)",
  "key": {"[1]": {"test_system": "neonatal rat ventricular myocytes (NRVMs)", "test": "NRVM cell size / hypertrophy (a-actinin staining, Coulter Counter)", "type": "cell-based", "method": "Primary culture cardiomyocytes prepared from neonatal rats were treated with fasted and post-fed serum samples. Twenty four hours later the cells were removed from the culturing dish and analyzed for changes in cell size by immunostaining or by automatic analyzer such as Coulter Counter.\nIn other experiments, neonatal rat cardiac myocytes (NRVMs) were prepared according to the method described in Waspe et al. (1990). In brief, cells were obtained from the hearts of Sprague-Dawley rat pups (1-2 days old) by trypsinization and plated in MEM medium (Hanks' salts) with 5% calf serum. After 48 h in culture, cells were transferred to serum-free medium supplemented with transferring and insulin (each 10 μg/ml). Cells were maintained in 60- or 35-mm culture dishes at a density of 200,000 cells/ml. Contaminating non-muscle cells were kept at <10% by pre-plating and addition of 0.1 mM bromodeoxyuridine to the medium though day 3 of culture.\nBefore treating the cells, serum samples were thawed and heat inactivated at 58° C. for 30 min. […]\nCardiomyocytes grown on gelatin-coated coverslips were infected with Ad Aqp7 for 48 h. […] Images were captured at a 40x magnification with a fluorescence microscope (Nikon E800) equipped with a digital camera (AxioCam) and Axiovision, version 3.0.6.36 imaging software (Carl Zeiss, Thornwood, NY). The surface areas were measured using NIH image software (Image J) and at least 100 individualized cells were analyzed per each experiment. Cell size was also determined by particle size analyzer, Coulter Counter Multisizer 3 ([…]).\nInhibition of fatty acid transport blocks serum-induced NRVM hypertrophy. […] NRVMs were treated with serum (2%) in the presence and absence of SSO (400 μM) for 48 hours and cell size was determined using a Coulter Counter.\nIndividual fatty acids were complexed to BSA as described by de Vries et al. (1997), which is hereby incorporated by reference. […] NRVM gene expression and mean cell diameter were determined after either 24 or 48 hours, respectively. […]"}, "AQP7 mRNA": {"test_system": "AQP7 mRNA", "test": "AQP7 mRNA expression in neonatal rat cardiomyocytes by qPCR", "type": "cell-based", "conditions": "for AQP7 mRNA expression: fasted serum (2%) plus individual fatty acid (C14: 10, 33, 100 μM; C16: 33, 100, 300 μM; C16:1: 3, 10, 33 μM), 48 hours", "method": "Individual fatty acids were complexed to BSA as described by de Vries et al. (1997), which is hereby incorporated by reference. […] An equal volume of Na2CO3 (10 mM) was added and the ethanol was evaporated at 60° C. under continuous N2 flow. The fatty acid mix was added dropwise to 10% BSA. BSA/fatty acid complexes were then dialyzed four times at 4° C. during 4-6 hours in NH4HCO3 (0.1 M). Complexes were then frozen, lyophilized overnight, and resuspended in NRVM rinse media (MEM/PB12/Hepes) for a final concentration of 7 mM. NRVMs were treated with fasted serum, 1 day post-fed serum, or fasted serum+individual fatty acids. […] NRVM gene expression and mean cell diameter were determined after either 24 or 48 hours, respectively.\nDose-dependent effects of individual fatty acids on AQP7 expression. […] Fasted serum (2% final) and fatty acids were diluted in serum-free media (MEM/Hepes/PB12) containing insulin, trnsferrin, BSA, and BrdU. Cells were treated for 48 hours and AQP7 mRNA expression was determined using qPCR with 18S as the normalizing gene.\nsiRNA studies. Rat AQP7 mRNA sequence was analyzed for potential small interfering RNA (siRNA) target regions using a sequence identification tool (Ambion, Inc., Austin, Tex.). Potential target sequences were transcribed from oligonucleotide templates using the Silencer siRNA Construction kit (Ambion, Inc., Austin, Tex.). To test for the ability of siRNAs to effectively reduce AQP7 expression, NRVMs were transfected with siRNA (100 nM) using Lipofectamine Plus reagent as specified by the manufacturer (Invitrogen, Carlsbad, Calif.). Several rat AQP7-specific siRNA sequences (#1: 5′-[…]-3′ (SEQ ID NO:22); #2: […]-3′ (SEQ ID NO:23); #3 5′-[…]-3′ (SEQ ID NO:24)) were tested for efficacy of gene knockdown using qPCR. […] A nonspecific siRNA (Silencer Negative Control #2; Ambion, Inc., Austin, Tex.) was used as a negative control."}, "[2]": {"test_system": "fetal gene program (β-myosin heavy chain, ANF, BNP, skeletal actin, SERCA)", "test": "Pathologic fetal gene expression in NRVMs by qPCR", "type": "cell-based, rat", "conditions": "48 hours", "method": "FIG. 4. […] Neonatal rat cardiomyocytes were untreated (lightest gray bars) or treated with fasted serum (light gray bars), post-fed serum (black bars) and Phenylephrin (PE; dark gray bars). After 48 hours, RNA was isolated and cDNA was obtained by standard procedures. The expression of several pathologic hypertrophic markers was measured by quantitative real-time PCR including β-myosin heavy chain, atrial natriuretic factor (ANF), brain natriuretic peptide (BNP), skeletal actin and sarcoplasmic reticulum calcium ATPase (SERCA).\nTotal RNA was extracted by TRizol (Invitrogen). 0.5 μg of RNA was reverse transcribed into cDNA using the SuperScript III first-strand cDNA synthesis kit (Invitrogen). Typically, 0.1 ng of cDNA, 12.5 nM of each primer, and Power SYBER Green PCR Master Mix (Applied Biosystems, Foster City, Calif.) were used in the reverse transcription (RT)-PCR reactions. Reactions were performed using the ABI7300 system. The primers used are presented on Table 1.\nTotal RNA was extracted from mouse or python ventricle and NRVMs using TRI Reagent (Invitrogen). 0.5 to 2.0 μg of RNA was reverse transcribed into cDNA using the SuperScript III first-strand cDNA synthesis kit (Invitrogen). Quantitative real time PCR reactions were performed using the ABI7300 system (Applied Biosystems, Foster City, Calif., USA) and the Power SYBR Green PCR Master Mix (Applied Biosystems). […]"}},
  "note": "Entries after “also recorded” stand apart in the source; their conditions may differ.",
  "data": [
    {"compound": "CCCCCCCC/C=C\\CCCCCCCC(=O)ON1C(=O)CC(S(=O)(=O)O)C1=O", "note": "(centres unmarked) [SSO, sulfo-N-succinimidyl oleate]", "values": [
      {"measurement": "effect on cell growth (hypertrophy) induced by fed serum/plasma", "setting": "[1]; SSO 400 μM, 2% 1DPF fed serum/plasma", "result": "completely blocks the cell growth induced by the fed-serum; also recorded: completely blocked the pro-hypertrophic effect of fed plasma; also recorded: significantly reduced"},
      {"measurement": "cell size, no serum (control)", "setting": "[1]; presence of SSO, no serum", "result": "smaller"}
    ]},
    {"compound": "CCCCCCCCCCCCCC(=O)O", "note": "[C14, tetradecanoic acid]", "values": [
      {"measurement": "Aqp7 mRNA levels", "setting": "AQP7 mRNA; fasted plasma supplemented with FFAs, relative to 1 DPF plasma", "result": "comparable levels observed with 1 DPF plasma"},
      {"measurement": "AQP7 mRNA expression", "setting": "AQP7 mRNA", "result": "tended to increase AQP7 mRNA expression in a dose-dependent manner"},
      {"measurement": "cell size", "setting": "[1]; fasted plasma (2%) supplemented with fatty acids at 1 DPF levels (C14 40 μM; C16 137 μM; C16:1 7.5 μM), 48 hours", "result": "significant increase in cell size"}
    ]},
    {"compound": "CNC[C@H](O)c1cccc(O)c1", "note": "[phenylephrine]", "values": [
      {"measurement": "activation of fetal gene program / pathological gene expression", "setting": "[2]", "result": "robust activation of pathological patterns of gene expression"}
    ]},
    {"compound": "CCCCCCCCCCCCCCCC(=O)O", "note": "[C16, hexadecanoid acid]", "values": [
      {"measurement": "AQP7 mRNA expression", "setting": "AQP7 mRNA", "result": "tended to increase AQP7 mRNA expression in a dose-dependent manner"}
    ]},
    {"compound": "CCCCCC/C=C\\CCCCCCCC(=O)O", "note": "[C16:1, (z)-9-hexadecenoic acid]", "values": [
      {"measurement": "AQP7 mRNA expression", "setting": "AQP7 mRNA", "result": "tended to increase AQP7 mRNA expression in a dose-dependent manner"}
    ]}
  ]
}
